Source: patent US20060241067A1, “Methods For inhibiting angiogenesis, cell migration, cell adhesion, and cell survival” (priority 2002, published 2006)
“Also recorded” adds a separate entry of the source.

Assays:
[1] = system: Human umbilical vein endothelial cells (HUVEC); test: Endothelial cell migration assay (transwell) on ECM substrates; assay type: cell-based; settings: 250 μM dibutyryl cAMP or transient transfection with expression constructs
Description: (§1) Human umbilical vein endothelial cells (HUVEC) were grown in Endothelial Growth Medium (containing 2% fetal bovine serum, bFGF and VEGF) (Clonetics, San Diego, Calif.). To render HUVECs quiescent for Rac and/or Rho assays, monolayers of endothelial cells were incubated for 18 hrs in Endothelial Basal Medium supplemented with 0.1% serum (Clonetics). Cell migration and adhesion assays on ECM substrates were performed as previously described in Kim et al. (S. Kim et al., Amer. J. Biol. Chem., 275:33920-33928 (2000); and S. Kim et al., Amer. J. Path., 156:1345-1362 (2000)).
Migration assays were performed essentially as described (Kim, et. al., 2000). […] HUVECS (25,000) were added to the upper chamber of inserts in migration buffer (Hepes buffered M199 medium containing 1% BSA, 2 mM MgCl2, 2 mM CaCl2 and 0.2 mM MnCl2) containing 25 μg/ml of various antibodies. In some experiments, 250 μM dibutyryl cAMP was placed in the upper and lower chambers of the transwell. Cells were allowed to migrate from the upper to the lower chamber for four hours at 37° C. The number of cells which had migrated were counted in three representative high power (200×) fields per insert. The data are presented as number of cells migrating+/−standard error of the mean. Migration assays were similarly performed on transfected cells. In this case, migrated transfected cells were identified by fluorescent microscopy and counted.

[2] = system: Rho; test: Rho activity assay (GST-Rhotekin binding domain affinity precipitation); assay type: cell-based, human; settings: cells attached to vitronectin 15 minutes; 250 μM dibutyryl cAMP or transfection
Description: as §1
(§2) Rho activity was determined by measuring the amount of Rho affinity bound to GST-Rhotekin binding domain (RBD). Levels of active Rho were determined by Western blotting affinity precipitated protein with anti-Rho antibodies while total Rho levels were measured by immunoblotting total cell lysates with anti-Rho. Rac activity was determined by measuring the amount of Rac affinity precipitated by the GST-p21-activated protein binding domain, PBD (Upstate Biotechnology, Syracuse, N.Y.). Levels of active Rac were determined by immunoblotting affinity precipitated protein with anti-Rac antibodies. […] Total Rac levels were measured by immunoblotting total cell lysates with anti-Rac.

[3] = system: Rac; test: Rac activity assay (GST-PBD affinity precipitation); assay type: cell-based, human; settings: vitronectin 30 minutes, cAMP, PTHrP or transfection
Description: as §1, §2

[4] = system: chick chorioallantoic membrane (CAM); test: Chick chorioallantoic membrane (CAM) angiogenesis assay; assay type: in vivo, chicken; settings: bFGF stimulated CAMs; 250 μM cAMP or 4 μg plasmid
[5] = system: HUVECS; test: Time lapse videomicroscopy of migrating endothelial cells; assay type: cell-based, human; settings: 500 μM dibutyryl-cAMP, vitronectin
Description: 2.5-cm-diameter glass coverslips were coated with 5 μg/ml vitronectin for 1 hour at 37° C., then blocked with 3% bovine serum albumin for 2 hours. HUVECs were removed from culture dishes by trypsizination, and plated on coverslips for 48 hours. Coverslips were then placed on the microscope stage (Zeiss, Oberkochen, Germany) connected to a Charged Coupled Device (CCD) camera and viewed at a 200× magnification in bright field. Cells on the coverslips were kept at 37° C. with 5% CO2, bathed in culture media with 20 mM HEPES (pH7.4). Images were recorded using IP Lab software (Webster, N.Y.) at 1-minute intervals for 60 minutes. Dibutyryl-cAMP was then directly added into the culture medium at concentration of 500 μM. Images of cells were then recorded for an additional 60 minutes at 1-minute intervals. Cell shape and migration distance changes were quantified using IMAQ Vision Builder software (National Instruments Corporation, Austin, Tex.). Cell shape and nuclear positions were measured at 10-minute time points. Ellipse Ratio was used as a parameter for polarity. As cell shape approaches a circle, the Ellipse Ratio approaches the number one. Distance migrated was determined by measuring the distance nuclei moved in ten minute intervals. […] Images were recorded using IP Lab Spectrum software (Webster, N.Y.) at 1-minute intervals for 60 minutes. […]

[6] = system: HUVECS; test: Staining of actin filaments and focal contacts (rhodamine phalloidin, anti-vinculin); assay type: cell-based, human
Description: Round […] glass coverslips were coated with 5 μg/ml vitronectin for 1 hour at 37° C., then blocked with 3% bovine serum albumin for 2 hours at 37° C. HUVECS were removed from culture dishes by trypsizination, washed in serum-free culture medium, and resuspended in endothelial basal culture medium. Cells were then incubated for one hour at 37° C. on coated coverslips. Cells were incubated in the presence of 25 μg/ml anti-α5β1, anti-α2β1 or no antibodies for 60 minutes. Alternatively, cells in endothelial growth medium containing VEGF and bFGF but no serum were plated on coverslips for 48 hours and then treated with cAMP or medium. Coverslips were then washed to remove unbound cells, fixed for 5 minutes in 3.7% paraformaldehyde and permeabilized in 0.3% TX-100 for 3 minutes. Coverslips were incubated with 0.2 μg/ml anti-vinculin antibodies or rhodamine phalloidin (20 ng/ml) in 20 mg/ml bovine serum albumin in phosphate buffered saline for one hour at room temperature. Coverslips were well washed in PBS and incubated in 10 μg/ml goat anti-mouse-Alexa 568 (for anti-vinculin) for 1 hour at room temperature. Coverslips were mounted using mounting medium prior to fluorescent microsopy.

[7] = system: Human umbilical vein endothelial cells (HUVEC); test: Cell adhesion (attachment) assay on ECM substrates; assay type: cell-based; settings: cAMP treatment or PKA catalytic subunit transfection
Description: as §1

In the case of `CCCC(=O)Nc1ncnc2c1ncn2[C@@H]1O[C@@H]2COP(=O)(O)O[C@H]2[C@H]1OC(=O)CCC` [dibutyryl cAMP], the “endothelial cell migration on vitronectin” value [1] is reported as “quantitatively inhibits endothelial cell migration”, the “Rho activity (GTP-loading)” value [2] is reported as “stimulates Rho activity (GTP-loading)” and the “Rac activation (RacGTP to total Rac)” value [3] is reported as “blocked”. The “Rac activation (RacGTP to total Rac)” value ([3]; listed as cell permeable cAMP) was “inhibits Rac activation”, the “angiogenesis (blood vessel branch points)” value [4] was “completely suppresses angiogenesis; also recorded: potently inhibits angiogenesis” and the “cell shape (polarity)” value [5] was “rapidly induces a flattening of the cell shape”. The “endothelial cell migration (distance moved by nuclei)” value [5] was “rapidly inhibits endothelial cell migration”, the “increase in the number of focal adhesions” value ([6]; cAMP treated versus untreated cells) was 3 fold and the “cell shape, stress fibers and actin remodeling” value ([6]; cAMP treatment or transfection, vitronectin) was “remain round and flat and exhibit neither stress fibers nor cortical actin; also recorded: inhibited actin remodeling and induced a flattened morphology”. The “localization of Rho A” value ([6]; immunolocalization, cAMP treated cells) was “stimulates the translocation of Rho A to the plasma membrane” and the “cell attachment to vitronectin” value [7] was “enhanced cell attachment to vitronectin”.
